The assay has as its target T1, FAP (Homo sapiens, UniProt Q12884).
T1 construct: expressed in transfected cells; host or cells: human embryonic kidney 293 cells stably transfected with pFAP.38; cell extract used
T1 sequence (Q12884 1-760): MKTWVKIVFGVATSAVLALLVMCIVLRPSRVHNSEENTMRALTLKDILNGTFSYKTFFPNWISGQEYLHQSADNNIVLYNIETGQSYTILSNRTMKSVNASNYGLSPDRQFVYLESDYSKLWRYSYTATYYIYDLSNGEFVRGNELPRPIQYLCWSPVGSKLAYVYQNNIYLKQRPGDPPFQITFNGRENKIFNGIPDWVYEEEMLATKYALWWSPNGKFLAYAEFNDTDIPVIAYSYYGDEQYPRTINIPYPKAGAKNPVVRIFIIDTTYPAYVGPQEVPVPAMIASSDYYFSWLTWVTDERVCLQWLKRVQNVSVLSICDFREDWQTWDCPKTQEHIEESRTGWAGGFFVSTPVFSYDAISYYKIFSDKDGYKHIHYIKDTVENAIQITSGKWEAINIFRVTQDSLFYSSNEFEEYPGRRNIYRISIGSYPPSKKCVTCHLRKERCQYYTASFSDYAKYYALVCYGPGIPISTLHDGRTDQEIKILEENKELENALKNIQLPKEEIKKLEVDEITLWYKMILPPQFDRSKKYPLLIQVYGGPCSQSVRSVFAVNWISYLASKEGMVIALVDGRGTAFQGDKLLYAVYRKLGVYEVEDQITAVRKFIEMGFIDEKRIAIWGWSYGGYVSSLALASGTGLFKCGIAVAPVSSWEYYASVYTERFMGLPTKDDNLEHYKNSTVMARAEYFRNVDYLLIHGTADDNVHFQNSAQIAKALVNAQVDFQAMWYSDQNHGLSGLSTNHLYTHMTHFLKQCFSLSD
Kind of assay: Assay for cleavage of AMCA substrates by FAP. The format is biochemical. The note with it: 1 ng FAP enzyme (FAP-transfected 293 cell extract), 20 μl 2.5 mM substrate, room temperature, 1 hour; control 293 extract subtracted. Here is the method:
Assay for Cleavage of AMCA Substrates by FAP:
Cell extract from 293 cells stably transfected with FAP prepared as described (see Park, et al., Fibroblast Activation Protein, a Dual Specificity Serine Protease expressed in human tumor stromal fibroblasts. (1999) J. Biol. Chem. 36505-12.). A similar extract was also prepared from parental 293 control cells without FAP. The FAP concentration in the FAP-transfected cell extract was estimated by immunoassay and 1 ng enzyme (diluted in buffer A) was used per assay. FAP-negative 293 control cell extract was used at the same dilution (also in buffer A) as a negative control. Substrate was initially dissolved in dimethylformamide at a concentration of 200 mM and diluted in buffer A to a final concentration of 2.5 mM. A few substrates were not soluble at this concentration and had to be diluted further.
10 μl 10% DMSO in buffer A
70 ll diluted FAP cell extract containing 1 ng FAP enzyme (OR control 293 cell extract without FAP)
Mix, incubate at room temperature for 1 hour, and measure fluorescence in Fluorostar fluorimeter at the following wavelengths:
AMCA conjugates: Excitation: 390 nm, Emission: 440 nm.
The fluorescence measured in the samples treated with control 293 control cell extracts without FAP is subtracted from the values measured in the samples treated with 1 ng FAP enzyme.

Take Z-Imi-Ala-Gly-Pro-AMCA: the Cleavage was found to be 0.61 µM and the Turnover worked out at 0.12%.

Z-Thz-Ala-Gly-Pro-AMCA-OH returned a Cleavage of 1.11 µM and a Turnover of 0.22%.

The values above are taken from patent US20030055052A1, “FAP-activated anti-tumor compounds” (priority 2000, published 2003).
